# How the values were obtained:
# [1] = target: Cholinesterase (Equus caballus) (UniProt P81908); conditions: at 2 mg/mL
# Description: Inhibition of horse BChE at 2 mg/ml by Ellman's method
# [2] = target: Acetylcholinesterase (Electrophorus electricus) (UniProt O42275); conditions: at 2 mg/mL
# Acetylcholinesterase (Electrophorus electricus), sequence (O42275 24-633 limits assumed): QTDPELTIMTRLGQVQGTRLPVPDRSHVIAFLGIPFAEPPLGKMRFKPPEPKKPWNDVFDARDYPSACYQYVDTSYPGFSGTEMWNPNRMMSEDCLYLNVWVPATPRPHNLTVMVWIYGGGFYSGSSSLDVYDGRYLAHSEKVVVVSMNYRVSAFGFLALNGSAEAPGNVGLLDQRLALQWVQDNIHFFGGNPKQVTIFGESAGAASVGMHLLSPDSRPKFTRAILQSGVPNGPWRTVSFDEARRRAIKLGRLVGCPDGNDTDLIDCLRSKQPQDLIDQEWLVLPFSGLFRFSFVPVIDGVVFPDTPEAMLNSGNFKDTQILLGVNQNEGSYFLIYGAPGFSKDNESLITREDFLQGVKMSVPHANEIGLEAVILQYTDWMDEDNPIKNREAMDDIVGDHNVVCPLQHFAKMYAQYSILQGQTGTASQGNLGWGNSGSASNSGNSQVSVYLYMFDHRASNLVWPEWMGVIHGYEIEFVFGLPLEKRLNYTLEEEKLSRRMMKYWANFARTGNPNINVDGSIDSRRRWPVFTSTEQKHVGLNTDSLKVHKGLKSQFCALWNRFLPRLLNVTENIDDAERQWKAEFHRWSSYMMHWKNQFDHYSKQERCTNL
# Description: Inhibition of electric eel AChE at 2 mg/ml by Ellman's method
# Cholinesterase (Equus caballus), sequence (P81908 whole entry): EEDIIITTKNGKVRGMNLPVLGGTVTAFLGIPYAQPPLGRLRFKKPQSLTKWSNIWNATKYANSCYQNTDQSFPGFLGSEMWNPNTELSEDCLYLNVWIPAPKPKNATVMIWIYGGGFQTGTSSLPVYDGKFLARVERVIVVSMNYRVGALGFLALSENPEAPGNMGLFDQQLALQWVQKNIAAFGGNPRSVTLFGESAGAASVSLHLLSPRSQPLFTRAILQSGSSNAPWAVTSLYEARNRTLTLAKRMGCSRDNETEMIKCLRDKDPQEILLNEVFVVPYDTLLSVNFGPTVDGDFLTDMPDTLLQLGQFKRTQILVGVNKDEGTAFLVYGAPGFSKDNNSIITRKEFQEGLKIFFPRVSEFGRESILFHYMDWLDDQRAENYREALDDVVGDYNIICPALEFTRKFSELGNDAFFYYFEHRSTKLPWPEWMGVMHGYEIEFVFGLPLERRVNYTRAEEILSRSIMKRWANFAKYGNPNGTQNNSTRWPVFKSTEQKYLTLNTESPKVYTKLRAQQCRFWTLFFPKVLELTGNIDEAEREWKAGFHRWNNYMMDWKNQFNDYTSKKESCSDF
SMILES,inhibition [1],inhibition [2]
O=c1cccc2n1C[C@@H]1CNC[C@H]2C1,-3.85%,2.17%
COc1cc(=O)oc(/C=C/C=C/C=C/C(C)=C/[C@@]2(C)O[C@H](C)[C@](C)(O)[C@H]2O)c1C,16.6%,27.1%
CO[C@H]1C[C@H](O[C@H]2[C@H](C)[C@@H](O[C@@H]3O[C@H](C)C[C@H](N(C)C)[C@H]3OC(C)=O)[C@@H](C)C[C@@]3(CO3)C(=O)[C@H](C)[C@@H](OC(C)=O)[C@@H](C)[C@@H](C)OC(=O)[C@@H]2C)O[C@@H](C)[C@@H]1OC(C)=O,-1.09%,14.8%
C[C@@H]1O[C@H](C[N+](C)(C)C)C[C@H]1O,-6.38%,-6.43%
CC(C)=CCC/C(C)=C/COc1ccc2ccc(=O)oc2c1,1.5%,-3.79%
O=C(O)c1cc(N(Cc2ccccc2O)Cc2cc(O)ccc2O)ccc1O,17.7%,2.35%
O=C(/C=C/c1ccc(O)c(O)c1)c1ccc(O)cc1O,-0.63%,10.1%
CC1=C2C(=CO[C@H](C)[C@H]2C)C(O)=C(C(=O)O)C1=O,11.3%,3.11%
COc1ccc2ccc(=O)oc2c1CC=C(C)C,-0.19%,3.31%
C[C@H]1[C@H](C)CC[C@]2(C(=O)O)CC[C@]3(C)C(=CC[C@@H]4[C@@]5(C)C[C@@H](O)[C@H](O)[C@@](C)(CO)[C@@H]5CC[C@]43C)[C@H]12,-8.64%,3.99%
O=c1cc(-c2ccccc2)oc2cc(O)ccc12,-0.25%,24.4%
Cc1cc(=O)oc2cc(O)ccc12,0.88%,4.46%
COc1ccc2cc1Oc1ccc(cc1)C[C@@H]1c3cc(c(OC)cc3CCN1C)Oc1c(OC)c(OC)cc3c1[C@H](C2)N(C)CC3,21.9%,-1.02%
COc1cc(/C=C/C(=O)c2ccc(O)cc2O)ccc1O,-0.11%,26.5%
O=C(/C=C/c1ccc(O)c(O)c1)OCCc1ccccc1,17.7%,-8.88%
CC[C@H](CC[C@@H](C)[C@H]1CC[C@H]2[C@@H]3CC=C4C[C@@H](O)CC[C@]4(C)[C@H]3CC[C@]12C)C(C)C,-1.87%,13.8%
C[C@@H]1O[C@@H](O[C@@H]2[C@@H](O)[C@H](O)[C@@H](CO)O[C@H]2c2c(O)cc(O)c3c(=O)cc(-c4ccc(O)cc4)oc23)[C@H](O)[C@H](O)[C@H]1O,-3.3%,25.9%
O=C(/C=C/C=C/c1ccc2c(c1)OCO2)N1CCCCC1,16.8%,-0.1%

SMILES,inhibition [1],inhibition [2]
CCCCCCCCCCC[C@@H](C[C@@H]1OC(=O)[C@H]1CCCCCC)OC(=O)[C@H](CC(C)C)NC=O,7.43%,-6.52%
O=C1/C(=C/c2ccc(O)c(O)c2)Oc2cc(O)ccc21,-2.22%,24.4%
COc1ccc(C[C@H](N)C(=O)N[C@H]2[C@@H](O)[C@H](n3cnc4c(N(C)C)ncnc43)O[C@@H]2CO)cc1,-9.98%,-7.92%
CN[C@@H]1[C@H](O)[C@H](NC)[C@H]2O[C@@]3(O)C(=O)C[C@@H](C)O[C@H]3O[C@@H]2[C@H]1O,-9.67%,15%
COc1cc2c(cc1O)C[C@H]1c3c(cc(O)c(OC)c3-2)CCN1C,1.24%,9.51%
O=c1cc(-c2ccc(O)cc2)oc2cc(O)cc(O)c12,4.5%,18.4%
OCc1c[nH]c2ccccc12,9.11%,-4.82%
COc1cccc2c1C(=O)c1c(O)c3c(c(O)c1C2=O)C[C@@](O)(C(=O)CO)C[C@@H]3O[C@H]1C[C@H](N)[C@H](O)[C@H](C)O1,1.2%,10.4%
C[C@@H]1O[C@@H](O[C@H]2[C@H](Oc3cc(O)c4c(c3)O[C@H](c3ccc(O)cc3)CC4=O)O[C@H](CO)[C@@H](O)[C@@H]2O)[C@H](O)[C@H](O)[C@H]1O,-5.49%,-3.38%
C[N+]1(C)CCC[C@H]1C(=O)[O-],-3.98%,-9.74%
CC1=CC(=O)c2c(O)cccc2C1=O,9.94%,31.8%
COc1cc2c(cc1OC)[C@@]13CC[N+]4([O-])CC5=CCO[C@H]6CC(=O)N2[C@H]1[C@H]6[C@H]5C[C@@H]34 (stereo not given in full),-6.05%,12.8%
Cc1nccc2c1[nH]c1cc(O)ccc12,35.9%,46.1%
CC[C@@H]1C(=O)OC[C@@H]1Cc1cncn1C,1.99%,20%
COc1ccc2cc1Oc1ccc(cc1)C[C@H]1c3c(cc4c(c3Oc3cc5c(cc3OC)CCN(C)[C@@H]5C2)OCO4)CCN1C,40.6%,8.59%
C=CCc1cc(OC)c2c(c1)OCO2,-9.87%,6.75%
C[C@@H]1O[C@@H](Oc2c(-c3ccc(O)c(O)c3)oc3cc(O)cc(O)c3c2=O)[C@H](O)[C@H](O)[C@H]1O,-6.56%,0.25%

# From ChEMBL document CHEMBL2163249, “Exploration of natural compounds as sources of new bifunctional scaffolds targeting cholinesterases and beta amyloid aggregation: the case of chelerythrine” (Bioorg Med Chem, 2012)
